Laboratory results taken from BindingDB's records for patent WO2025049746 (Eikon Therapeutics, 2025).

Legend:
[1] = target: T1, Bifunctional 3'-5' exonuclease/ATP-dependent helicase WRN [480-1251] (UniProt Q14191); test: Biochemical Activity Assays
T1 construct: 480-1251
Protocol: The pure fractions were pooled and desalted/buffer exchanged into storage buffer using a HiTrap desalting column. […] First, WRN alone was pre-incubated with DMSO or compound of interest for 15 minutes. To initiate the reaction, ATP, dsDNA substrate, and ssDNA competitor (ssDNA_comp: […]) were added and incubated at room temperature for 20 minutes at which point DNA unwinding activity was monitored by measuring Cy3 fluorescence. After obtaining the reading, the ATPase activity was measured using the ADP-Glo Kinase Assay following the manufacturers recommended protocol. […] Compounds were assayed in a 10-point dose response in duplicate at a 1% DMSO final assay concentration.

[2] = target: Bifunctional 3'-5' exonuclease/ATP-dependent helicase WRN (Homo sapiens, UniProt Q14191); test: ADP-Glo Kinase Assay
Protocol: ATPase activity was measured using the ADP-Glo Kinase Assay following the manufacturers recommended protocol.

T1 sequence (Q14191 480-1251): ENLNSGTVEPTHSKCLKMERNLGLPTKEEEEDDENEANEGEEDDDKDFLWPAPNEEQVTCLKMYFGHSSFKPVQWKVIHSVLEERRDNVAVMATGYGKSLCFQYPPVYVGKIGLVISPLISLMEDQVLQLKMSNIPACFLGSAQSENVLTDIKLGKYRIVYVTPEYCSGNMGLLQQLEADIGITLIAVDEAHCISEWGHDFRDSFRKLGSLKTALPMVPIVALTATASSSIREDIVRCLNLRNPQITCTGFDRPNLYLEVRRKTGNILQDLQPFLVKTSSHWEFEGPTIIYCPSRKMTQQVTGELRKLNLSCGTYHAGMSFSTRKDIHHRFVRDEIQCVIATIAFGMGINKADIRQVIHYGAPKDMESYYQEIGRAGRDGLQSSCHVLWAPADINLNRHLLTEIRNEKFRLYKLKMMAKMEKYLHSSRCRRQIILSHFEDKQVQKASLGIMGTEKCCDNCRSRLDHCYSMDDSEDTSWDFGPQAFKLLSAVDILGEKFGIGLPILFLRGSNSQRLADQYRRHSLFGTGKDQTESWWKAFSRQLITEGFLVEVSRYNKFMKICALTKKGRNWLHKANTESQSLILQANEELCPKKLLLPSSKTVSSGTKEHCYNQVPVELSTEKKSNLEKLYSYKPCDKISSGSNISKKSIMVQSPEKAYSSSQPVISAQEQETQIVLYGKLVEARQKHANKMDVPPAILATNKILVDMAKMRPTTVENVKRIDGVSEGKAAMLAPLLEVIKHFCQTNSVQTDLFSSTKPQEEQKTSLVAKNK
Bifunctional 3'-5' exonuclease/ATP-dependent helicase WRN, sequence (Q14191 whole entry): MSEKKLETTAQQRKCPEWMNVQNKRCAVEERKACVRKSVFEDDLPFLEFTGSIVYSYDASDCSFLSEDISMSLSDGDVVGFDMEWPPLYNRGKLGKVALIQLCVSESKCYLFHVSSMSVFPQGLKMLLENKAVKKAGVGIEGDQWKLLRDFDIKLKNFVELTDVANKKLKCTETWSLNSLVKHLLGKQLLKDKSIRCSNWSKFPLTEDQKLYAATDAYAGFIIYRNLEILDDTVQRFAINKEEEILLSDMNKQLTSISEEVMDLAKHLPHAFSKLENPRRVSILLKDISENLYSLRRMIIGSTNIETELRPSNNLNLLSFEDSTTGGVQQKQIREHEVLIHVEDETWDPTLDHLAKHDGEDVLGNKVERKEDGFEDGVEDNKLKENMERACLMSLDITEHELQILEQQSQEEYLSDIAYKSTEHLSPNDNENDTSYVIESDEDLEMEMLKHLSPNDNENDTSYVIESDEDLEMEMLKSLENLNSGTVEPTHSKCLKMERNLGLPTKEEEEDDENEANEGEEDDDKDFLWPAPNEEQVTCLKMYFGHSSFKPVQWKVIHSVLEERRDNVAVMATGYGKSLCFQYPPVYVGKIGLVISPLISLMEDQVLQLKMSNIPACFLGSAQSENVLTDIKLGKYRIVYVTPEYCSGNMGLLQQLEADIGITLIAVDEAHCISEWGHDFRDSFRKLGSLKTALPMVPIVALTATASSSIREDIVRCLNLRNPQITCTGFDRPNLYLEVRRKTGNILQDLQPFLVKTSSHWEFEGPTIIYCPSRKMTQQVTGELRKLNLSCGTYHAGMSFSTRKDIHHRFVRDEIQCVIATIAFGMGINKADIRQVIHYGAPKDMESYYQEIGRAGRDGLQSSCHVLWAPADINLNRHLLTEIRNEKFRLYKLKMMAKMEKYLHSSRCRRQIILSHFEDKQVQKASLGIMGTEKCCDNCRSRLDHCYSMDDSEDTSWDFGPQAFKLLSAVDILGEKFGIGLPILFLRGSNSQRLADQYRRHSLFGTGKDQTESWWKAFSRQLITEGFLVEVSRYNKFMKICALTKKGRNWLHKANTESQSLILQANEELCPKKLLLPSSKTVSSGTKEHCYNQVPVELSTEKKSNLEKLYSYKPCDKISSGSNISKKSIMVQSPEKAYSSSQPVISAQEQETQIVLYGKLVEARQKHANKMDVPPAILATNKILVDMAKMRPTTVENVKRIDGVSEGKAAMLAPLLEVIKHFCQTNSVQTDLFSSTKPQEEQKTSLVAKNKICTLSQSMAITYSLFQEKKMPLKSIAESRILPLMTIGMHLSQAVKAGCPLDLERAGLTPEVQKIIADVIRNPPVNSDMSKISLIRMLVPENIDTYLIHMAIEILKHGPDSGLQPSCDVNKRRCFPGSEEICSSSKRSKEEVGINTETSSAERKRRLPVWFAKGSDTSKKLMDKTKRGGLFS

| Structure (SMILES) | IC50 [1] [nM] | IC50 [2] [nM] |
| --- | --- | --- |
| CCc1c(N2CCN(C(=O)c3ncnc(C)c3O)CC2)c(=O)n2nc(-c3cccc4c3CCOC4)nc2n1CC(=O)Nc1c(Cl)cc(C(F)(F)F)c2c1CC2 [WO2025049746, Example 389] | 137 | 1170 |
| CCc1c(N2CCN(C(=O)c3cc(N4CCN(C)CC4)nc(C)c3O)CC2)c(=O)n2nc(-c3ccc4c(c3)COC4)nc2n1CC(=O)Nc1ccc(C(F)(F)F)cc1Cl [WO2025049746, Example 450] | 103 | 108 |
| CCc1c(N2CCN(C(=O)c3ncnc(C)c3O)[C@@H]3CC[C@@H]32)c(=O)n2nc(-c3ccc4c(c3)COC4(C)C)nc2n1CC(=O)Nc1ccc(C(F)(F)F)cc1Cl [WO2025049746, Example 459] | 81 | 91 |
| CCc1c(N2CCN(C(=O)c3ncnc(C)c3O)CC2)c(=O)n2nc(-c3cccc4c3cnn4C)nc2n1CC(=O)Nc1ccc(C(F)(F)F)cc1Cl [WO2025049746, Example 22] | 29.4 | 37.1 |
| CCc1c(N2CCN(C(=O)c3ncnc(C)c3O)CC2)c(=O)n2nc(-c3ccc4nn(C(F)F)cc4c3)nc2n1CC(=O)Nc1ccc(C(F)(F)F)cc1Cl [WO2025049746, Example 248] | 26 | 24 |
| CCc1c(N2CCN(C(=O)c3ncnc(C)c3O)CC2)c(=O)n2nc(-c3cc4cnn(C)c4cc3C)nc2n1CC(=O)Nc1ccc(C(F)(F)F)cc1Cl [WO2025049746, Example 311] | 47 | 50 |
| CCc1c(N2CCN(C(=O)c3cccc4c3NS(=O)(=O)C=C4)CC2)c(=O)n2nc(-c3ccc4c(c3)COC4)nc2n1CC(=O)Nc1ccc(C(F)(F)F)cc1Cl [WO2025049746, Example 426] | 25 | 34 |
| CCc1c(N2CCN(C(=O)c3ccccc3NS(C)(=O)=O)CC2)c(=O)n2nc(N(C)C)nc2n1CC(=O)Nc1ccc(C(F)(F)F)cc1Cl [WO2025049746, Example 82] | 40.7 | 58.9 |
| CCc1c(N2CCN(C(=O)c3ccccc3NS(=O)(=O)C3CC3)CC2)c(=O)n2nc(-c3ccc4c(c3)CCOC4)nc2n1CC(=O)Nc1ccc(C(F)(F)F)cc1Cl [WO2025049746, Example 91] | 84.6 | 106 |
| CCc1c(N2CCN(C(=O)c3ncnc(C)c3O)CC2)c(=O)n2nc(-c3ccc4c(c3)C(C)(C)CO4)nc2n1CC(=O)Nc1ccc(C(F)(F)F)cc1Cl [WO2025049746, Example 193] | 53 | 73 |
| CCc1c(N2CCN(C(=O)c3ncnc(C)c3O)CC2)c(=O)n2nc(C3=CCOCC3)nc2n1CC(=O)NC12CCC(C(F)(F)F)(CC1)CC2 [WO2025049746, Example 349] | 994 | 1950 |
| CCc1c(N2CCN(C(=O)c3ncnc(C)c3O)CC2)c(=O)n2nc(-c3ccc4nc(C)oc4c3)nc2n1CC(=O)Nc1ccc(C(F)(F)F)cc1Cl [WO2025049746, Example 237] | 84 | 82 |
| CCc1c(N2CCN(C(=O)c3ncnc(C)c3O)CC2)c(=O)n2nc(-c3ccc4c(c3)CC(C)(C)O4)nc2n1CC(=O)Nc1ccc(C(F)(F)F)cc1Cl [WO2025049746, Example 194] | 67 | 81 |
| CCc1c(N2CCN(C(=O)C3=CCOCC3)CC2)c(=O)n2nc(-c3ncc(O)cn3)nc2n1CC(=O)Nc1ccc(C(F)(F)F)cc1Cl [WO2025049746, Example 436] | 50 | 103 |
| CCc1c(N2CCN(C(=O)c3ncnc(C)c3O)CC2)c(=O)n2nc(-c3ccn4ncnc4c3)nc2n1CC(=O)Nc1ccc(C(F)(F)F)cc1Cl [WO2025049746, Example 220] | 96 | 111 |
| CCc1c(N2CCN(C(=O)c3ncnc(C)c3O)CC2)c(=O)n2nc(-c3ccc4c(c3)C[C@@H](C)O4)nc2n1CC(=O)Nc1ccc(C(F)(F)F)cc1Cl [WO2025049746, Example 231] | 49 | 40 |
| CCc1c(N2CCN(C(=O)c3ncnc(C)c3O)[C@H]3CC[C@H]32)c(=O)n2nc(-c3ccc4c(c3)COC4(C)C)nc2n1CC(=O)Nc1ccc(C(F)(F)F)cc1Cl [WO2025049746, Example 460] | 45 | 52 |
| CCc1c(N2CCN(C(=O)c3cccc4c3nnn4C)CC2)c(=O)n2nc(C3=CCOCC3)nc2n1CC(=O)Nc1ccc(C(F)(F)F)cc1Cl [WO2025049746, Example 49] | 46.7 | 130 |
| CCc1c(N2CCN(C(=O)c3ncnc(C)c3O)CC2)c(=O)n2nc(C3=CCOCC3)nc2n1CC(=O)NC1CC2C(C1)C2(F)F (configuration not stated) [WO2025049746, Example 350] | 6000 | 6830 |
| CCc1c(N2CCN(C(=O)c3ncnc(C)c3O)CC2)c(=O)n2nc(-c3cc(OC(F)F)n4nccc4c3F)nc2n1CC(=O)Nc1ccc(C(F)(F)F)cc1Cl [WO2025049746, Example 317] | 93 | 75 |
| CCc1c(N2CCN(C(=O)c3ncnc(C)c3O)CC2)c(=O)n2nc(-c3ccc4nn(C)nc4c3)nc2n1CC(=O)Nc1ccc(C(F)(F)F)cc1Cl [WO2025049746, Example 301] | 35 | 33 |

| Structure (SMILES) | IC50 [1] [nM] | IC50 [2] [nM] |
| --- | --- | --- |
| CCc1c(N2CCN(C(=O)c3ncnc(C)c3O)CC2)c(=O)n2nc(-c3ccc4c(c3)C(C)(C)OC4(C)C)nc2n1CC(=O)Nc1ccc(C(F)(F)F)cc1Cl [WO2025049746, Example 172] | 87 | 124 |
| CCc1c(N2CCN(C(=O)c3ncnc(C)c3O)CC2)c(=O)n2nc(N3CC(OC)C3)nc2n1CC(=O)Nc1ccc(C(F)(F)F)cc1Cl [WO2025049746, Example 27] | 56 | 86.3 |
| CCc1c(N2CCN(C(=O)c3ncnc(C)c3O)CC2)c(=O)n2nc(-c3ccc4c(c3)CCOC4)nc2n1CC(=O)Nc1ccc(OC(F)(F)Cl)cc1 [WO2025049746, Example 398] | 34 | 43 |
| CCc1c(N2CCN(C(=O)c3ncnc(C)c3O)CC2)c(=O)n2nc(C3C4COCC43)nc2n1CC(=O)Nc1ccc(C(F)(F)F)c2c1CC2 (configuration not stated) [WO2025049746, Example 382] | 2300 | 2960 |
| CCc1c(N2CCN(C(=O)c3ncnc(C)c3O)CC2)c(=O)n2nc(-c3cccc4c3OCCO4)nc2n1CC(=O)Nc1c(Cl)cc(C(F)(F)F)c2c1CC2 [WO2025049746, Example 388] | 58 | 87 |
| CCc1c(N2CCN(C(=O)c3ncnc(C)c3O)CC2)c(=O)n2nc(-c3cc(C(F)(F)F)c4ncccc4c3)nc2n1CC(=O)Nc1ccc(C(F)(F)F)cc1Cl [WO2025049746, Example 322] | 96 | 72 |
| CCc1c(N2CCN(C(=O)c3ccccc3NS(=O)(=O)C3CC3)CC2)c(=O)n2nc(N3C[C@H]4COC[C@H]4C3)nc2n1CC(=O)Nc1ccc(C(F)(F)F)cc1Cl [WO2025049746, Example 94] | 23.4 | 26.6 |
| CCc1c(N2CCN(C(=O)c3ncnc(C)c3O)CC2)c(=O)n2nc(-c3ccc4c(c3)CC(=O)N4)nc2n1CC(=O)Nc1ccc(C(F)(F)F)cc1Cl [WO2025049746, Example 325] | 34 | 25 |
| CCc1c(N2CCN(C(=O)c3ncnc(C)c3O)CC2)c(=O)n2nc(-c3cc4n(n3)CCOC4)nc2n1CC(=O)Nc1ccc(C(F)(F)F)cc1Cl [WO2025049746, Example 154] | 50 | 69 |
| CCc1c(N2CCN(C(=O)c3ncnc(C)c3O)CC2)c(=O)n2nc(-c3cccc4sc(C)nc34)nc2n1CC(=O)Nc1ccc(C(F)(F)F)cc1Cl [WO2025049746, Example 156] | 37 | 52 |
| CCc1c(N2CCN(C(=O)c3ncnc(C)c3O)CC2)c(=O)n2nc(C3=CCOCC3)nc2n1CC(=O)Nc1ccc(SC(F)(F)F)cc1Cl [WO2025049746, Example 364] | 30 | 36 |
| CCc1c(N2CCN(C(=O)c3ncnc(C)c3O)CC2)c(=O)n2nc(-c3ccc4c(c3)CCO[C@@H]4C)nc2n1CC(=O)Nc1ccc(C(F)(F)F)cc1Cl [WO2025049746, Example 228] | 28 | 32 |
| CCc1c(N2CCN(C(=O)c3ncnc(C)c3O)CC2)c(=O)n2nc(-c3ccn4nc(F)cc4c3)nc2n1CC(=O)Nc1ccc(C(F)(F)F)cc1Cl [WO2025049746, Example 251] | 25 | 26 |
| CCc1c(N2CCN(C(=O)c3ncnc(C)c3O)CC2)c(=O)n2nc(C3=CCOCC3)nc2n1CC(=O)NC12CC(c3ccc(F)cc3)(C1)C2 [WO2025049746, Example 353] | 29700 | 6860 |
| CCc1c(N2CCN(C(C)=O)CC2)c(=O)n2nc(N(C)C)nc2n1CC(=O)Nc1ccc(C(F)(F)F)cc1Cl [WO2025049746, Example 81] | 174 | 533 |
| CCc1c(N2CCN(C(=O)c3nccc(C)c3N)CC2)c(=O)n2nc(C3=CCOCC3)nc2n1CC(=O)Nc1ccc(C(F)(F)F)cc1Cl [WO2025049746, Example 36] | 38.3 | 42.9 |
| CCc1c(N2CCN(C(=O)c3ncnc(C)c3O)CC2)c(=O)n2nc(-c3ccc4c(c3F)CCO4)nc2n1CC(=O)Nc1ccc(C(F)(F)F)cc1Cl [WO2025049746, Example 180] | 45 | 53 |
| CCc1c(N2CCN(C(=O)c3ncnc(C)c3O)CC2)c(=O)n2nc(-c3cc(C)c4c(c3)COC4)nc2n1CC(=O)Nc1ccc(C(F)(F)F)cc1Cl [WO2025049746, Example 206] | 28 | 33 |
| CCc1c(N2CCN(C(=O)c3ncnc(C)c3O)CC2)c(=O)n2nc(-c3ccn4c(C)nnc4c3)nc2n1CC(=O)Nc1ccc(C(F)(F)F)cc1Cl [WO2025049746, Example 246] | 42 | 37 |
| CCc1c(N2CCN(C(=O)c3ncnc(C)c3O)CC2)c(=O)n2nc(-c3ccc4c(c3)[C@H](C(F)(F)F)OC4)nc2n1CC(=O)Nc1ccc(C(F)(F)F)cc1Cl [WO2025049746, Example 277] | 173 | 176 |
